In ChEMBL document CHEMBL2021760, “4-(1-Phenyl-1H-pyrazol-4-yl)quinolines as novel, selective and brain penetrant metabotropic glutamate receptor 4 positive allosteric modulators” (Bioorg Med Chem Lett, 2012):
pEC50: −log10 of the molar value. Converted amounts (≈) assume the structure as drawn.

Legend:
[1] = target: T1, Metabotropic glutamate receptor 4 (Homo sapiens, UniProt Q14833); assay: Positive allosteric modulation of human mGlu4 receptor expressed in BHK cells assessed as potentiation of glutamate-induced calcium mobilization by FLIPR analysis; assay type: functional, cell-based
[2] = target: T1, Metabotropic glutamate receptor 4; assay: Positive allosteric modulation of human mGlu4 receptor expressed in BHK cells assessed as potentiation of glutamate-induced calcium mobilization by FLIPR analysis relative to PHCCC; assay type: functional, cell-based
Plasma = assay: Plasma concentration in rat at 10 mg/kg, po; assay type: ADME, organism-based; set-up: dose 10 mg/kg, route oral; details: in vivo
[3] = Plasma protein binding in rat; assay type: ADME, cell-free; details: read-out: PPB (converted)
CYP3A4 = CYP3A4 (Homo sapiens, UniProt P08684); assay: Inhibition of CYP3A4 at 5 uM; assay type: ADME
[4] = Kinetic solubility of the compound at pH 7.4; assay type: physicochemical; details: buffer, read-out: Kinetic_solubility
Cerebrospinal fluid = assay: Drug uptake in rat CSF at 10 mg/kg, po; assay type: ADME, organism-based; set-up: dose 10 mg/kg, route oral; details: in vivo
CYP2B6 = target: T2, CYP2B6 (Homo sapiens, UniProt P20813); assay: Inhibition of CYP2B6 at 5 uM; assay type: ADME
T2 sequence (P20813 whole entry): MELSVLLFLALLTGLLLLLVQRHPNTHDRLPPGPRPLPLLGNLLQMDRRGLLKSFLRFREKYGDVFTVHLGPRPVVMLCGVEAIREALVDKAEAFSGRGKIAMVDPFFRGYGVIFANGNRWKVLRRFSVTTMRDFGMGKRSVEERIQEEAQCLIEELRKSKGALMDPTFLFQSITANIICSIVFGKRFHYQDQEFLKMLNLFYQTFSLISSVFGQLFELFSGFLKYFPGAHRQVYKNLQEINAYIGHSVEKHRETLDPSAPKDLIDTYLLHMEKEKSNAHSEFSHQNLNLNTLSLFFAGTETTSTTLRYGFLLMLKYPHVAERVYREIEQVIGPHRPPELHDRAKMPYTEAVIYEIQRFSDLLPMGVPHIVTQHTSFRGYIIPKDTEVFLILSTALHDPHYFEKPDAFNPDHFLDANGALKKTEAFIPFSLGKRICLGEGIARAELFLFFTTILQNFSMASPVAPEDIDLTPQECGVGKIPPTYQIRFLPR

[5] = Kinetic solubility of the compound at pH 4.0; assay type: physicochemical; details: buffer, read-out: Kinetic_solubility
[6] = Ratio of drug level in brain to plasma in rat at 10 mg/kg, po; assay type: ADME, organism-based; set-up: dose 10 mg/kg, route oral; details: read-out: BPR
Brain [7] = assay: Drug uptake in rat brain at 10 mg/kg, po; assay type: ADME, organism-based; set-up: dose 10 mg/kg, route oral; details: in vivo
Brain [8] = assay: Fraction unbound in rat brain; assay type: ADME, tissue-based
[9] = Lipophilicity, log D of compound at pH 7.4; assay type: physicochemical; details: buffer
Rattus norvegicus = organism: Rattus norvegicus; assay: Intrinsic clearance in rat; assay type: ADME, organism-based; details: in vivo
[10] = target: T1, Metabotropic glutamate receptor 4; assay: Positive allosteric modulation of human mGlu4 receptor expressed in BHK cells assessed as fold shift in calcium mobilization by FLIPR analysis relative to glutamate; assay type: functional, cell-based
CYP2C19 = CYP2C19 (Homo sapiens, UniProt P33261); assay: Inhibition of CYP2C19 at 5 uM; assay type: ADME
CYP2C9 = CYP2C9 (Homo sapiens, UniProt P11712); assay: Inhibition of CYP2C9 at 5 uM; assay type: ADME
CYP2C9, sequence (P11712 whole entry): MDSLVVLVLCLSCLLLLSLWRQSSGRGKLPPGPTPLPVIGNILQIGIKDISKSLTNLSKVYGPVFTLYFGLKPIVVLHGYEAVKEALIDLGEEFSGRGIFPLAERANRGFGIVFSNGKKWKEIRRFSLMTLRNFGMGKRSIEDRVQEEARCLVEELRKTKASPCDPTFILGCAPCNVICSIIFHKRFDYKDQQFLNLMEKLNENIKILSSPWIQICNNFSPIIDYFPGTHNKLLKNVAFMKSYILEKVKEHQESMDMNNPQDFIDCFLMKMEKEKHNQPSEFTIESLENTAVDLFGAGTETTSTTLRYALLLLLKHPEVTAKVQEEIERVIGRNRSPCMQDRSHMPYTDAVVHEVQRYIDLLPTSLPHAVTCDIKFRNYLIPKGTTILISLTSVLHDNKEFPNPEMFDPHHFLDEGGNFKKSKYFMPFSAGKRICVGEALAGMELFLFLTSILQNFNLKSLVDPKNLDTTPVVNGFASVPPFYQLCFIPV

T1 sequence (Q14833 whole entry): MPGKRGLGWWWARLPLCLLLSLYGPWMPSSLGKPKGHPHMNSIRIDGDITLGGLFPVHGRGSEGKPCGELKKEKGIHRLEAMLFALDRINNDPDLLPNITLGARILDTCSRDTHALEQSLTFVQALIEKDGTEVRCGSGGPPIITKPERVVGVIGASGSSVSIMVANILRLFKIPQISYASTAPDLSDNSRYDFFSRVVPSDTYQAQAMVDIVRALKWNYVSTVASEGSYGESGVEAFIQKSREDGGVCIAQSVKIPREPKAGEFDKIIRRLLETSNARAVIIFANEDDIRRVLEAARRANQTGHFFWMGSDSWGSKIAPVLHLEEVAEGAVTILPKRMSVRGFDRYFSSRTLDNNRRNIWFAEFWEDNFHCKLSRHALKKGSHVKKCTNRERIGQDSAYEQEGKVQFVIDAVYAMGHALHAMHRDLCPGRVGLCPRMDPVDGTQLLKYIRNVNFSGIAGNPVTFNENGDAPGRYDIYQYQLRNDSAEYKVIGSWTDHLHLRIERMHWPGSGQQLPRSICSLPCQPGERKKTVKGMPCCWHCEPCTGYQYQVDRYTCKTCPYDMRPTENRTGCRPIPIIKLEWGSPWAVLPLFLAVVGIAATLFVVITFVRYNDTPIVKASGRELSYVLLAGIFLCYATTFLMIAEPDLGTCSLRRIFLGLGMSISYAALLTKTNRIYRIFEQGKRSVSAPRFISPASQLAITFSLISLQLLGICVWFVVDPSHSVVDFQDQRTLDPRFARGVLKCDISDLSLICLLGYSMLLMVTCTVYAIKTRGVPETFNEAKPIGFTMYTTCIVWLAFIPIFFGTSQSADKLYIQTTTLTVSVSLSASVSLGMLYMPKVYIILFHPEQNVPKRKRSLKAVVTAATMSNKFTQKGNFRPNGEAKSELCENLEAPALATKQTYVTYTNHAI
CYP3A4, sequence (P08684 whole entry): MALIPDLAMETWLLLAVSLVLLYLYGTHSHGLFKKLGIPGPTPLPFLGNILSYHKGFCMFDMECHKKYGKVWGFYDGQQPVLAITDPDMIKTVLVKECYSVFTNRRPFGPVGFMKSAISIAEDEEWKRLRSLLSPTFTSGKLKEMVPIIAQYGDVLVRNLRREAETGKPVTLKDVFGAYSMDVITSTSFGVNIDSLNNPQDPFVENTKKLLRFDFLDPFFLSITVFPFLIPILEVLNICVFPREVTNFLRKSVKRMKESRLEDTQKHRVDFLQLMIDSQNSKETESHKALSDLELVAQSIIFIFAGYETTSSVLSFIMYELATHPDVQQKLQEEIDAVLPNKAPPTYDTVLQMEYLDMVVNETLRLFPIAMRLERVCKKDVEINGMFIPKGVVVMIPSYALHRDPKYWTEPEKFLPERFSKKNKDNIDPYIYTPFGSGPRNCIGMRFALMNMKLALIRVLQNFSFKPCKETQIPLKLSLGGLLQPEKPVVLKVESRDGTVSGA
CYP2C19, sequence (P33261 whole entry): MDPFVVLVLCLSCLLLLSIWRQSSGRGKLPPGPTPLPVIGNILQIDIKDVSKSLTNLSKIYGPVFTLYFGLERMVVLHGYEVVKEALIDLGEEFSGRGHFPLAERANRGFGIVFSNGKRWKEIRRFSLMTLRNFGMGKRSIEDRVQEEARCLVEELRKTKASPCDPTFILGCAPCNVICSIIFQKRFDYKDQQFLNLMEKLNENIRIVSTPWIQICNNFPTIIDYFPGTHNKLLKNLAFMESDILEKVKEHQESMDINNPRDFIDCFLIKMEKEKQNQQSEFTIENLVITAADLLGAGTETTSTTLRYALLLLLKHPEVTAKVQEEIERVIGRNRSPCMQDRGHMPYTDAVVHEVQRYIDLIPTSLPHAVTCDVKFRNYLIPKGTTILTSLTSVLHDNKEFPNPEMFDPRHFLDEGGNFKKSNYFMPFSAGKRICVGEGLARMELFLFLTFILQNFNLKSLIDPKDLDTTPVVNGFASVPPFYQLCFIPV

| Structure (SMILES) | pEC50 [1] | Emax [2] [%] | other results |
| --- | --- | --- | --- |
| Cc1nn(-c2ccccc2)cc1-c1ccnc2ccccc12 | 6.32 | 130 |  |
| Clc1ccc2c(-c3cnn(-c4ccccc4)c3)ccnc2c1 | 6.23 | 100 |  |
| c1ccc(-n2cc(-c3ccnc4[nH]ccc34)cn2)cc1 | 5.57 | 47 |  |
| O=C(Oc1ccc2c(-c3cnn(-c4ccccc4)c3)ccnc2c1)N1CCOCC1 | 6.05 | 84 |  |
| c1ccc(-n2cc(-c3ccnc4cc(OCCN5CCCC5)ccc34)cn2)cc1 | < 5.00 | 9 |  |
| c1ccc(-n2cc(-c3ccnc4cc(OCCCN5CCCCC5)ccc34)cn2)cc1 | < 5.00 | 23 |  |
| c1ccc(-n2cc(-c3ccnc4ccccc34)cn2)nc1 | 5.68 | 92 |  |
| CCOc1ccc2c(-c3cnn(-c4ccccc4)c3)ccnc2c1 | 6.27 | 93 |  |
| c1ccc(-n2cc(-c3n[nH]c4ccccc34)cn2)cc1 | 5.62 | 42 |  |
| c1ccc(-n2cc(-c3ccncc3)cn2)cc1 | < 5.00 | 39 |  |
| COc1ccc2c(-c3cnn(-c4ccccc4)c3)ccnc2c1 | 6.66 | 79 | Cp (Plasma): 220 ng/mL; fraction unbound [3]: 0.002; inhibition at 5 µM (CYP3A4): 35%; solubility kinetic [4]: 4.6 µM (≈ 1.39 µg/mL); Drug uptake (Cerebrospinal fluid): < 1 ng/mL; inhibition at 5 µM (CYP2B6): 35%; solubility kinetic [5]: 120 µM (≈ 36.2 µg/mL); Kp [6]: 0.8; Drug uptake (Brain [7]): 180 ng/g; Fu (Brain [8]): 0.1%; logD [9]: 5; CL (Rattus norvegicus): 68 mL/min |
| c1ccc(-n2cc(-c3ccnc4cc(OCCN5CCCCC5)ccc34)cn2)cc1 | 5.22 | 71 |  |
| CN(C)C(=O)COc1ccc2c(-c3cnn(-c4ccccc4)c3)ccnc2c1 | < 5.00 | 11 |  |
| CN(C)CCOc1ccc2c(-c3cnn(-c4ccccc4)c3)ccnc2c1 | < 5.00 | 23 |  |
| Cc1nccc(-c2cnn(-c3ccccc3)c2)c1C | 5.92 | 40 |  |
| c1ccc(-n2cc(-c3ccnc4c3CCC4)cn2)cc1 | 5.64 | 65 |  |
| Fc1cccc(-n2cc(-c3ccnc4ccccc34)cn2)c1 | 5.51 | 92 |  |
| CN(C)C(=O)Oc1ccc2c(-c3cnn(-c4ccccc4)c3)ccnc2c1 | 6.02 | 82 |  |
| COCCOc1ccc2c(-c3cnn(-c4ccccc4)c3)ccnc2c1 | 6.41 | 110 |  |
| c1ccc(-n2cc(-c3c[nH]c4ccccc34)cn2)cc1 | 5.60 | 44 |  |
| Cc1nn(-c2ccccc2)c(C)c1-c1ccnc2ccccc12 | 6.08 | 150 |  |
| CCN(CC)C(=O)Oc1ccc2c(-c3cnn(-c4ccccc4)c3)ccnc2c1 | 6.41 | 120 | Cp (Plasma): 23 ng/mL; fraction unbound [3]: 0.012; inhibition at 5 µM (CYP3A4): 35%; solubility kinetic [4]: 1.4 µM (≈ 0.541 µg/mL); Drug uptake (Cerebrospinal fluid): < 1 ng/mL; inhibition at 5 µM (CYP2B6): 61%; solubility kinetic [5]: 190 µM (≈ 73.4 µg/mL); Kp [6]: 1.5; Drug uptake (Brain [7]): 35 ng/g; Ratio [10]: 11.2; Fu (Brain [8]): 0.4%; inhibition at 5 µM (CYP2C19): 83%; inhibition at 5 µM (CYP2C9): 88%; CL (Rattus norvegicus): 46 mL/min |
